The values that follow come from ChEMBL document CHEMBL4354835, “Selective Blockade of Neuronal BK (α + β4) Channels Preventing Epileptic Seizure” (J Med Chem, 2020).

Activity calls are given as the source filed them. The calls are words filed in the database; no cut-off is given here.

The target in test [1] is T1, KCNMA1/KCNMB4 (Rattus norvegicus) (UniProt Q62976+Q9ESK8). Nature of the test: Inhibition of BK alpha/beta-4 in PTZ-stimulatedrat hippocampal pyramidal neurons assessed as reduction in neuronal firing rate at -80mV holding potential in presence of 200 to 300 pA current injection measured after 10 mins by whole cell current clamp assay. The class given is protein-complex assay.

Test [2] deals with T2, Calcium-activated potassium channel subunit beta-4 (Homo sapiens), Q86W47 [E122K].
T2 sequence (whole entry): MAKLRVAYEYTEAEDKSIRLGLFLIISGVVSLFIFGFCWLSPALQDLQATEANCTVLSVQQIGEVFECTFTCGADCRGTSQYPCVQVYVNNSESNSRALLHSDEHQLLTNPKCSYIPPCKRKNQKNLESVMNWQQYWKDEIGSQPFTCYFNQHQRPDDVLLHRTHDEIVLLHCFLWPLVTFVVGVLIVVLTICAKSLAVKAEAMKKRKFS
Nature of the test: Binding affinity to NT-495 fluorophore reagent labelled human BK beta4 E122K mutant incubated for 30 mins by microscale thermophoresis assay. (In general: Microscale thermophoresis detects binding through changes in fluorescence in a small temperature gradient.)

For test [3], the species on record is Homo sapiens. Nature of the test: Selectivity ratio of compound Kd for NT-495 fluorophore reagent labelled human BK beta4 E104K mutant to compound Kd for NT-495 fluorophore reagent labelled human BK beta4 (45 to 166 residues) by microscale thermophoresis assay.
The species named for test [4] is Rattus norvegicus. Nature of the test: Inhibition of C-Fos expression in PTZ-induced epileptic seizures Sprague-Dawley rat model assessed as inhibition of FLI-positive granular neurons in DG region of contralateral hippocampus at 10 uM compound infused into hippocampal region and 10 mins later injected with PTZ and measured after 2 hrs by immunohistochemistry. It is filed as functional, organism-based.

Test [5] is filed under the species Rattus norvegicus. Nature of the test: Inhibition of field potential response in PTZ-induced epileptic seizure Sprague-Dawley rat model compound infused into hippocampal region and 10 mins later injected with PTZ and measured after 2 hrs by microarray electrode based analysis. The class given is functional, organism-based.
Test [6] has as its target T1, KCNMA1/KCNMB4 (Rattus norvegicus). Nature of the test: Inhibition of BK alpha/beta-4 in PTZ-stimulated rat hippocampal pyramidal neurons assessed as slower decay of after hyperpolarization at 300 pA at -80mV holding potential measured after 10 mins by whole cell current clamp assay. The class given is protein-complex assay.
The species entered for test [7] is Rattus norvegicus. Nature of the test: Neuroprotective activity in PTZ-induced epileptic seizure Sprague-Dawley rat model assessed as inhibition of hippocampal destruction by measuring increase in Nissl stained pyramidal neurons in contralateral hippocampus CA1 region compound infused into hippocampal region and 10 mins later injected with PTZ and measured after 3 days by Nissl staining based microscopic analysis. The class given is functional, organism-based.

The species named for test [8] is Homo sapiens. Nature of the test: Inhibition of human BK alpha/human beta4 E122K mutant expressed in HEK293T cells assessed as K+ fractional outward current at 10 uM at -80 mV holding potential by whole cell patch clamp technique relative to control. It is filed as cell-based. In general terms: In patch-clamp work, channel activity is measured electrically.
The species named for test [9] is Rattus norvegicus. Nature of the test: Neuroprotective activity in PTZ-induced epileptic seizure Sprague-Dawley rat model assessed as inhibition of hippocampal destruction by measuring increase in Nissl stained pyramidal neurons in contralateral hippocampus CA3 region compound infused into hippocampal region and 10 mins later injected with PTZ and measured after 3 days by Nissl staining based microscopic analysis. It is filed as functional, organism-based.

Test [10] is filed under the species Rattus norvegicus. Nature of the test: Neuroprotective activity in PTZ-induced epileptic seizure Sprague-Dawley rat model assessed as inhibition of hippocampal destruction by measuring increase in Nissl stained granular neurons in contralateral hippocampus DG region compound infused into hippocampal region and 10 mins later injected with PTZ and measured after 3 days by Nissl staining based microscopic analysis. The class given is functional, organism-based.

The species entered for test [11] is Rattus norvegicus. Nature of the test: Effect on neuronal network in PTZ-induced epileptic seizures Sprague-Dawley rat model assessed as lowered PSD at delta wave band compound infused into hippocampal region and 10 mins later injected with PTZ and measured after 2 hrs by power spectral density analysis. It is filed as functional, organism-based.
For test [12], the species on record is Rattus norvegicus. Nature of the test: Neuroprotective activity in PTZ-induced epileptic seizure Sprague-Dawley rat model assessed as inhibition of hippocampal destruction by measuring increase in Nissl stained pyramidal neurons in ipsilateral hippocampus CA1 region compound infused into hippocampal region and 10 mins later injected with PTZ and measured after 3 days by Nissl staining based microscopic analysis. It is filed as functional, organism-based.

The species named for test [13] is Rattus norvegicus. Nature of the test: Anticonvulsant activity against PTZ-induced epileptic seizure Sprague-Dawley rat model assessed as mortality rate compound infused into hippocampal region and 10 mins later injected with PTZ and measured for 2 hrs post PTZ-stimulation (reference value: 33.33%). It is filed as functional.
The target of test [14] is Calcium-activated potassium channel subunit beta-4 (Homo sapiens, UniProt Q86W47, E104K). Nature of the test: Binding affinity to NT-495 fluorophore reagent labelled human BK beta4 E104K mutant incubated for 30 mins by microscale thermophoresis assay.
Chain of Calcium-activated potassium channel subunit beta-4 (Q86W47 whole entry E104K): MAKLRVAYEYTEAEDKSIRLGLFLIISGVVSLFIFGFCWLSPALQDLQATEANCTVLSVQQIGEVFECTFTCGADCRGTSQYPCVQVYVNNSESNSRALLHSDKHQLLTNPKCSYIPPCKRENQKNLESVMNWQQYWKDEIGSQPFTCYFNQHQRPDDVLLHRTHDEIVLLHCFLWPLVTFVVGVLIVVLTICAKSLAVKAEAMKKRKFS
The species named for test [15] is Homo sapiens. Nature of the test: Inhibition of human BK alpha/human beta-4 E104K mutant expressed in HEK293T cells assessed as K+ fractional outward current at 10 uM at -80 mV holding potential by whole cell patch clamp technique relative to control. The class given is cell-based.
Test [16] has as its target T1, KCNMA1/KCNMB4 (Rattus norvegicus). Nature of the test: Inhibition of BK alpha/beta-4 in PTZ-stimulated rat hippocampal pyramidal neurons assessed as larger action potential width at 300 pA current injection at -80mV holding potential measured after 10 mins by whole cell current clamp assay. The class given is protein-complex assay.

By mortality is commonly meant the share of the test organisms that died. The term Kd denotes the constant that tells how readily two partners part at equilibrium. With `CC[C@H](C)[C@H](NC(=O)[C@H](CC(C)C)NC(=O)CNC(=O)[C@H](Cc1ccccc1)NC(=O)[C@H](CO)NC(=O)CN)C(=O)N[C@@H](CC(=O)O)C(=O)N[C@H](C(=O)N[C@@H](CCCCN)C(=O)N[C@H]1CSSC[C@@H]2NC(=O)[C@H](CCCCN)NC(=O)CNC(=O)[C@H](CCC(N)=O)NC(=O)CNC(=O)[C@H](CO)NC(=O)CNC(=O)[C@H]([C@@H](C)O)NC(=O)[C@H](C(C)C)NC(=O)[C@H](CCCCN)NC(=O)[C@H](CCCCN)NC(=O)[C@@H]3CSSC[C@@H](C(=O)N[C@@H](Cc4ccc(O)cc4)C(=O)O)N[C@@H](CCCNC(=N)N)C(=O)[C@H](CSSC[C@H](NC(=O)[C@H](CCC(=O)O)NC(=O)[C@H](CO)NC(=O)[C@H](CO)NC(=O)[C@H](C)NC(=O)[C@H](Cc4ccccc4)NC1=O)C(=O)N[C@@H](Cc1c[nH]c4ccccc14)C(=O)N[C@@H]([C@@H](C)O)C(=O)N[C@@H](C)C(=O)N3)N[C@@H](CCC(N)=O)C(=O)NC(=O)[C@H](CC(N)=O)NC(=O)[C@H](CC(N)=O)NC(=O)[C@H](CCC(N)=O)NC2=O)C(C)C`, the inhibition entry (in [1]; in the test listed under Rattus norvegicus [4]; in the test listed under Rattus norvegicus [5]; in test [6]; in test [16]) was “Active” each time. Besides, the outcome in test [2] was inactive. Also, the Selectivity ratio in the test filed under Homo sapiens [3] was 1.4. In addition, the result in the test listed under Rattus norvegicus [7], in the test filed under Rattus norvegicus [9], in the test filed under Rattus norvegicus [10], in the test filed under Rattus norvegicus [11] and in the test filed under Rattus norvegicus [12] was Active. The figures for the Ratio in the test listed under Homo sapiens [8] and in the test filed under Homo sapiens [15] were 0.88 and 0.94, respectively. Also, the mortality in the test listed under Rattus norvegicus [13] came out at 0%. Moreover, the Kd in test [14] was 782 µM.
